Measured values published in patent publication US9826773B2, “Brazzen multiple variants of increased sweetness, and production method for same” (CHUNG-ANG UNIVERSITY INDUSTRY—ACADEMIC COOPERATION …, priority 2012, dated 2017).

What was measured:
human gustatory system = test: Measurement of sweetness activity using the human gustatory system (threshold of initially sensing sweetness); assay type: in vivo; settings: for Level of sweetness compared to sucrose (g/g): mass basis; for Level of sweetness compared to sucrose (g/g) / Level of sweetness compared to sucrose (molecular): sucrose = 1; for Level of sweetness compared to sucrose (molecular): molar basis; for times as sweet as sucrose in the same mass: rounded values of the text; for times as sweet as the wild-type brazzein in the same mass: relative to wild-type brazzein
Procedure: Since brazzein is not a sugar but a protein, sweetness may not be measured using a saccharimeter. Consequently, the activity was measured using the human gustatory system. Since the threshold values of initially sensing sweetness are different per person, the activity was measured by comparing the concentrations of initially sensing sweetness between a sugar solution and a brazzein solution. The subjects were composed of 10 men and 10 women, who were trained in advance. First, the standard sugar solution was sequentially tasted, and the concentration of initially sensing sweetness was checked. Brazzein was dissolved in distilled water (10.0 mg/mL) and diluted to set the concentration to 1 to 20 ng/mL, and the sweetness of the solution was tasted and the concentration of sensing sweetness as the threshold value was checked to measure the relative activity of sweetness among sugar, wild-type brazzein, and a brazzein variant. Specifically, the activity was measured as follows. Before the activity was measured, the subject was informed in advance of the test date and time to sense the taste in tiptop conditions, and was prohibited from drinking alcohol the day before the test date and eating food immediately before the test. The subject washed the palate with bottled water prepared, and then a sample according to the concentration of each kind was tasted in each of an amount of 100 μl sequentially from a low concentration to a high concentration. The resulting data were obtained by discarding dubious values through the Q test, minimizing the standard deviation, and calculating the average.

[1] = cited from earlier work; for thermal stability: background statement
[2] = same threshold expressed in molar concentration
[3] = trained panel of 10 men and 10 women, concentration of initially sensing sweetness, 100 μl samples tasted from low to high concentration

Molecule | Level of sweetness compared to sucrose (g/g) (human gustatory system) | Level of sweetness compared to sucrose (molecular) (human gustatory system) | Threshold value of sweetness experiment (human gustatory system; [2]) | Threshold value of sweetness experiment (human gustatory system; [3]) | solubility and pH stability in water ([1]; Gao et al. 1999) | thermal stability [1] | times as sweet as sucrose in the same mass (human gustatory system) | times as sweet as the wild-type brazzein in the same mass (human gustatory system)
OC[C@H]1O[C@@](CO)(O[C@H]2O[C@H](CO)[C@@H](O)[C@H](O)[C@H]2O)[C@@H](O)[C@@H]1O [Sucrose, reference compound] | 1 | 1 | 58,000 μM | 2.0 g (100 mL)^−1 |  |  |  | 
Brazzein: sweetener protein extracted from the fruit of Pentadiplandra brazzeana (Baillon) (QDKCKKVYENYPVSKCQLANQCNYDCKLDKHARSGECFYDEKRNLQCICDYCEY; UniProt P56552 1-54, looked up) |  |  |  |  | very high solubility and pH stability | very high thermal stability |  | 
K4D_H30R_E35D_E40A: brazzein multiple variant, 4th Lys to Asp in tertiary variant H30R_E35D_E40A, SEQ ID NO. 14 (DKCDKVYENYPVSKCQLANQCNYDCKLAKRARSGDCFYDAKRNLQCICDYCEY; Brazzein Variant) | 2,000,000 | 36708861 | 0.00158 µM | 0.0000010 g (100 mL)^−1 |  |  | 2,000,000 times | 2,500 times
K4D_H30R_E35D_E40D: brazzein multiple variant, 4th Lys to Asp in tertiary variant H30R_E35D_E40D, SEQ ID NO. 17 (DKCDKVYENYPVSKCQLANQCNYDCKLAKRARSGDCFYDDKRNLQCICDYCEY; Brazzein Variant) | 1,333,333 | 24545600 | 0.00236 µM | 0.0000015 g (100 mL)^−1 |  |  | 1,300,000 times | 1,670 times
K4D_H30R_E35D_E40K: brazzein multiple variant, 4th Lys to Asp in tertiary variant H30R_E35D_E40K, SEQ ID NO. 11 (DKCDKVYENYPVSKCQLANQCNYDCKLAKRARSGDCFYDKKRNLQCICDYCEY; Brazzein Variant) | 1,598,481 | 28379848 | 0.00204 µM | 0.0000013 g (100 mL)^−1 |  |  | 1,500,000 times | 1,920 times
K4D_H30R_E35D_E40R: brazzein multiple variant, 4th Lys to Asp in tertiary variant H30R_E35D_E40R, SEQ ID NO. 20 (DKCDKVYENYPVSKCQLANQCNYDCKLAKRARSGDCFYDRKRNLQCICDYCEY; Brazzein Variant) | 1,818,181 | 33687455 | 0.00172 µM | 0.0000011 g (100 mL)^−1 |  |  | 1,800,000 times | 2,270 times
K4E_H30R_E35D_E40A: brazzein multiple variant, 4th Lys to Glu in tertiary variant H30R_E35D_E40A, SEQ ID NO. 15 (DKCEKVYENYPVSKCQLANQCNYDCKLAKRARSGDCFYDAKRNLQCICDYCEY; Brazzein Variant) | 2,000,000 | 36708861 | 0.00158 µM | 0.0000010 g (100 mL)^−1 |  |  | 2,000,000 times | 2,500 times
K4E_H30R_E35D_E40D: brazzein multiple variant, 4th Lys to Glu in tertiary variant H30R_E35D_E40D, SEQ ID NO. 18 (DKCEKVYENYPVSKCQLANQCNYDCKLAKRARSGDCFYDDKRNLQCICDYCEY; Brazzein Variant) | 1,250,000 | 23062250 | 0.00251 µM | 0.0000016 g (100 mL)^−1 |  |  | 1,250,000 times | 1,560 times
K4E_H30R_E35D_E40K: brazzein multiple variant, 4th Lys to Glu in tertiary variant H30R_E35D_E40K, SEQ ID NO. 12 (DKCEKVYENYPVSKCQLANQCNYDCKLAKRARSGDCFYDKKRNLQCICDYCEY; Brazzein Variant) | 1,666,666 | 30812500 | 0.00188 µM | 0.0000012 g (100 mL)^−1 |  |  | 1,700,000 times | 2,080 times
K4E_H30R_E35D_E40R: brazzein multiple variant, 4th Lys to Glu in tertiary variant H30R_E35D_E40R, SEQ ID NO. 21 (DKCEKVYENYPVSKCQLANQCNYDCKLAKRARSGDCFYDRKRNLQCICDYCEY; Brazzein Variant) | 1,818,181 | 33761273 | 0.00172 µM | 0.0000011 g (100 mL)^−1 |  |  | 1,800,000 times | 2,270 times
K4R_H30R_E35D_E40A: brazzein multiple variant, 4th Lys to Arg in tertiary variant H30R_E35D_E40A, SEQ ID NO. 16 (DKCRKVYENYPVSKCQLANQCNYDCKLAKRARSGDCFYDAKRNLQCICDYCEY; Brazzein Variant) | 2,857,143 | 52727273 | 0.0011 µM | 0.0000007 g (100 mL)^−1 |  |  | 2,900,000 times | 3,570 times
K4R_H30R_E35D_E40D: brazzein multiple variant, 4th Lys to Arg in tertiary variant H30R_E35D_E40D, SEQ ID NO. 19 (DKCRKVYENYPVSKCQLANQCNYDCKLAKRARSGDCFYDDKRNLQCICDYCEY; Brazzein Variant) | 1,666,666 | 30860187 | 0.00188 µM | 0.0000012 g (100 mL)^−1 |  |  | 1,700,000 times | 2,080 times
K4R_H30R_E35D_E40K: brazzein multiple variant, 4th Lys to Arg in tertiary variant H30R_E35D_E40K, SEQ ID NO. 13 (DKCRKVYENYPVSKCQLANQCNYDCKLAKRARSGDCFYDKKRNLQCICDYCEY; Brazzein Variant) | 2,000,000 | 37131600 | 0.00156 µM | 0.0000010 g (100 mL)^−1 |  |  | 2,000,000 times | 2,500 times
K4R_H30R_E35D_E40R: brazzein multiple variant, 4th Lys to Arg in tertiary variant H30R_E35D_E40R, SEQ ID NO. 22 (DKCRKVYENYPVSKCQLANQCNYDCKLAKRARSGDCFYDRKRNLQCICDYCEY; Brazzein Variant) | 2,000,000 | 37284000 | 0.00156 µM | 0.0000010 g (100 mL)^−1 |  |  | 2,000,000 times | 2,500 times
Monellin |  |  |  |  |  | low thermal stability |  | 
WT-Brazzein: wild-type brazzein, molecular weight 6501 in Table 3 (QDKCKKVYENYPVSKCQLANQCNYDCKLDKHARSGECFYDEKRNLQCICDYCEY; UniProt P56552 1-54, looked up) [reference compound] | 800 | 15,082 | 3.846 µM | 0.0025 g (100 mL)^−1 |  |  |  | 
